Data as given in US20250338857A1, “USE OF INTERFERING RNAS DIRECTED AGAINST THE CHOLINERGIC SYSTEM FOR CONTROLLING INSECT PESTS” (priority 2022, published 2025).
Values after ≈ are worked out from the molar mass of the structure shown.

Tests used:
aphid larvae = assay: Imidacloprid concentration-effect mortality curve in aphid larvae (LC50); type: in vivo; conditions: Acyrthosiphon pisum, artificial nutrition
Method: Mortality tests were performed using an artificial nutrition system comprising a PVC tube closed by a Parafilm® at each end, in which 5 adult aphids or 20 larvae were deposited. At one of the ends of the artificial nutrition “cell”, 200 μL of nutrient solution comprising the solution to be tested (insecticide, dsRNA) were deposited on the Parafilm then covered with a 2nd Parafilm to allow the aphids to suck the solution for feeding by piercing the Parafilm with their rostrum. The cells were placed at 20° C. in a chamber with a photoperiod of 16 h. To determine the concentration of imidacloprid leading to 50% mortality (LC50) in the aphid larvae, a concentration-effect curve was plotted at 48 h and 72 h from a range of imidacloprid concentrations from 10^−6 to 10 μg/mL.
The mortality curves were obtained with GraphPad Prism software in the form of a non-linear regression and adjusted with the Hill equation,
[formula] • where Y is the percent mortality observed at the concentration value X, m and M are respectively the minimum and maximum values of the curve, nH is the Hill coefficient and LC50 is the concentration of imidacloprid causing 50% mortality. The results are expressed as a mean±S.E.M. Type of Effect of the dsRNAs

[1] = test system: cockroach Periplaneta americana; assay: Mortality after acute imidacloprid intoxication in cockroaches exposed to a sublethal dose for 30 days; type: in vivo; conditions: 0.025 μg/cockroach/day for 30 days, re-exposure 96 h

O=[N+]([O-])NC1=NCCN1Cc1ccc(Cl)nc1 [imidacloprid]
LC50 (aphid larvae; 48 h): 8 ng/mL (≈ 0.0313 µM)
LC50 (aphid larvae; 72 h): 4 ng/mL (≈ 0.0156 µM)
effect of sublethal intoxication for 30 days on sensitivity of cockroaches to acute intoxication [1]: loss of sensitivity
